Results: PMC3412845, “Waking Action of Ursodeoxycholic Acid (UDCA) Involves Histamine and GABAA Receptor Block” (PLoS ONE, 2012)

How the values were obtained:
GABAA receptor = assay: Voltage dependence of GABAAR block (Woodhull analysis); assay type: cell-based; settings: Woodhull fit, Eq. 3; for Kd: read-out: KD(0), dissociation constant at 0 mV
Protocol: Voltage dependence of GABAAR block by UDCA was analysed according to the method of Woodhull, which provides a means of calculating the fraction of the transmembrane field sensed by charged blocking ligand at its acceptor site.

NMDA receptors = assay: NMDA-evoked currents in isolated neurons; assay type: cell-based; settings: D-AP5 100 µM
Protocol: (§1) Recordings from histaminergic neurons in male Wistar rat (22–26 day old) or 30–60 day old mouse (SV129, histidine decarboxylase deficient HDC−/− or their wild type littermates) hypothalamic slices were performed as previously described. Slices were obtained between 9 and 11 a.m. In the beginning of whole-cell voltage clamp recordings TMN neurons were identified with the help of DIC microscopy and electrophysiological criteria as previously described. Inhibitory postsynaptic currents (IPSCs) were evoked by local stimulation through a bipolar stainless-steel stimulating electrode (50 µm; WPI, UK). The stimulation of axonal endings coming to TMN from ventrolateral preoptic area (VLPO) was done as described in [22]. Visual identification of histaminergic neurons recorded in cell-attached configuration (see [16]) was confirmed by the significant reduction of firing rate by the histamine 3 (H3) receptor agonist R-α-methylhistamine (0.2 µM), which was performed at the end of each experiment. Individual neurons were separated by vibrodissociation after brief preincubation with papain from the hypothalamic slices of mice or rats and identified as TMN neurons according to their size and shape. Identification was confirmed post hoc with the single-cell RT-PCR (all data presented in the manuscript were obtained from histidine decarboxylase-expressing neurons), [40]. TMN neurons from HDC−/− mice were identified by the expression of peripherin [16]. Whole-cell voltage-clamp recordings from isolated neurons were done with an EPC-9 amplifier and TIDA for Windows (HEKA, Lambrecht, Germany) at room temperature. Membrane potentials were not corrected for liquid junction potential (5.6 mV, calculated with LJPCalc, Barry, 1994). The intracellular solution was composed of (in mM) 140 KCl, 2 MgCl2, 0.5 CaCl2, 5 EGTA, 2 ATP and 10 HEPES (pH 7.2 adjusted with NaOH). A fast perfusion technique was used for application of ligands and modulators of fast ionotropic receptors, [41]. […] EC50 is the ligand concentration producing a half-maximal response, [ligand] is ligand concentration, and n is the Hill slope. Hill coefficients were obtained from the slope of the log/log plot of the dose-response curves. […] Steady-state amplitudes of the responses were used for the construction of dose-response plots if not mentioned otherwise.
For the testing of UDCA action at NMDA receptors a maximal 0.2 mM concentration of agonist was used. Recordings were done in Mg^2+ -free solution in the presence of 10 µM of glycine. NMDA-currents were abolished by the NMDA receptor antagonist D-AP5 (100 µM).

[1] = system: TMN neurons (eIPSCs and sIPSCs); assay: Spontaneous and evoked IPSCs in TMN neurons in brain slices; assay type: cell-based, rat; settings: gabazine 10 µM, n = 5
Protocol: as §1, with “Visual identification of histaminergic neurons recorded in cell-attached configuration (see [16]) was confirmed by the significant reduction of firing rate by the histamine 3 (H3) receptor agonist R-α-methylhistamine (0.2 µM), which was performed at the end of each experiment.” left out

[2] = system: isolated TMN neurons (sIPSCs); assay: sIPSCs in acutely isolated and cultured neurons; assay type: cell-based; settings: gabazine
Protocol: as §1, with “Visual identification of histaminergic neurons recorded in cell-attached configuration (see [16]) was confirmed by the significant reduction of firing rate by the histamine 3 (H3) receptor agonist R-α-methylhistamine (0.2 µM), which was performed at the end of each experiment.” left out

[3] = target: T1, α1V256Sβ2γ2L GABAA receptors (UniProt P22723+P62813+P63138, V283S); assay: Patch-clamp of mutant α1V256Sβ2γ2L GABAAR in HEK293 cells; assay type: cell-based, rat α1V256S, rat β2, mouse γ2L; settings: pregnenolone sulphate 10 µM
T1 construct: expressed in transfected cells; host or cells: HEK293
Protocol: (§2) HEK 293 cells were obtained from DSM (Deutsche Sammlung von Mikroorganismen und Zellkulturen GmbH, DSM, Braunschweig). They were grown and maintained according to published standard protocols. Briefly, cells were grown in minimal essential medium supplemented with 10% fetal bovine serum, 100units/ml penicillin and streptomycin and 2 mM L-glutamine and splitted once per week. Semiconfluent cells were transfected on the third day after splitting with the help of Lipofectamine 2000 (Invitrogen), recordings were done 48–72 hrs after transfection.
(§3) The GABAAR subunit cDNAs, generously donated by G.Gisselmann (rat α1, mouse γ2L, rat β1, β2 and human β3 [26]) and J.H. Steinbach (rat α1V256S [28] and rat α1Q241L [44]), were subcloned into pcDNA3 (Invitrogen, Karlsruhe, Germany) and applied in a ratio 1∶1∶1 for the α1βxγ2L receptor and 1∶1 for α1β3 or β3γ2L receptors. […] For each receptor type patch clamp recordings were obtained from at least three separate transfections. Whole-cell patch clamp recordings were done in a similar extracellular solution as for the native cells (see above) except that the concentration of MgCl2 was reduced to 1.2 mM. Intracellular electrodes contained 140 mM CsCl (instead of KCl), pH adjusted with CsOH. The voltage was held at −40 mV.

[4] = target: T2, α1β2γ2L GABAA receptors (WT) (UniProt P22723+P62813+P63138); assay: Patch-clamp of recombinant wild-type α1β2γ2L GABAAR in HEK293 cells; assay type: cell-based, rat α1, rat β2, mouse γ2L; settings: pregnenolone sulphate 10 µM
T2 construct: expressed in transfected cells; host or cells: HEK293
Protocol: as §2, §3

[5] = system: cultured hypothalamic neurons; assay: Microelectrode array (MEA) recordings of cultured hypothalamic neurons; assay type: cell-based, mouse; settings: with GABAA receptor antagonist gabazine
Protocol: Primary dissociated cultures of posterior hypothalamus were prepared from newborn mice according to the protocols previously described, [43]. […] Recordings were done between 11th-21st day after plating. […] Signals from all 60 electrodes were simultaneously sampled at 25 kHz, visualized and stored using the standard software […] provided by Multi Channel Systems. Spike detection and analysis was performed offline with the software […] (RESULT Medizinische […], Germany), which uses the agreement coefficient “Cohen's kappa” (κ) to assess the degree of spike and burst synchrony for selected pairs of electrodes. […] In order to describe the distribution of kappa across the whole MEA, we calculated the mean of all kappa-values obtained for pairs of “active” electrodes. At the beginning of experiments the basal medium was replaced by a magnesium-free HEPES-based recording solution (see above) and measurements were started after a 20 min adaptation phase. Every measurement comprised three recordings - control, test substance and washout (second control) - each two minutes long and separated by an intermediate period of 30 seconds.

native GABAA receptors = assay: GABA-evoked whole-cell currents in acutely isolated TMN neurons (wild type); assay type: cell-based, mouse
Protocol: as §1, with “Visual identification of histaminergic neurons recorded in cell-attached configuration (see [16]) was confirmed by the significant reduction of firing rate by the histamine 3 (H3) receptor agonist R-α-methylhistamine (0.2 µM), which was performed at the end of each experiment.” left out

[6] = system: GABAA receptors of HDC−/− TMN neurons; assay: GABA-evoked whole-cell currents in TMN neurons from HDC−/− mice; assay type: cell-based, mouse
Protocol: as §1, with “Visual identification of histaminergic neurons recorded in cell-attached configuration (see [16]) was confirmed by the significant reduction of firing rate by the histamine 3 (H3) receptor agonist R-α-methylhistamine (0.2 µM), which was performed at the end of each experiment.” left out

T1 sequence (P62813 28-455 V283S): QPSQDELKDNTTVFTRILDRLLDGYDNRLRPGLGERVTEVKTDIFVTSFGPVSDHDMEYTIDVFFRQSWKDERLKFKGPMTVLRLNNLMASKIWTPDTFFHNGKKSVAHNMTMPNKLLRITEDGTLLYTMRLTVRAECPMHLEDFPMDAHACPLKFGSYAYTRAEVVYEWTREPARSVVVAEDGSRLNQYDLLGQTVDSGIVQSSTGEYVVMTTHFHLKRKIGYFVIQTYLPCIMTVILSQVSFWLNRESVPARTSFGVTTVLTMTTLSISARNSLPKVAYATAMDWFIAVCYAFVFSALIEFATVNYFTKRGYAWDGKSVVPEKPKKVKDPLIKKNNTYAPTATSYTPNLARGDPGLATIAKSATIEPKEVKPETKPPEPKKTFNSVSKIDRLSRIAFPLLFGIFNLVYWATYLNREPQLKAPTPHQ
T1 sequence (P63138 25-474 limits assumed): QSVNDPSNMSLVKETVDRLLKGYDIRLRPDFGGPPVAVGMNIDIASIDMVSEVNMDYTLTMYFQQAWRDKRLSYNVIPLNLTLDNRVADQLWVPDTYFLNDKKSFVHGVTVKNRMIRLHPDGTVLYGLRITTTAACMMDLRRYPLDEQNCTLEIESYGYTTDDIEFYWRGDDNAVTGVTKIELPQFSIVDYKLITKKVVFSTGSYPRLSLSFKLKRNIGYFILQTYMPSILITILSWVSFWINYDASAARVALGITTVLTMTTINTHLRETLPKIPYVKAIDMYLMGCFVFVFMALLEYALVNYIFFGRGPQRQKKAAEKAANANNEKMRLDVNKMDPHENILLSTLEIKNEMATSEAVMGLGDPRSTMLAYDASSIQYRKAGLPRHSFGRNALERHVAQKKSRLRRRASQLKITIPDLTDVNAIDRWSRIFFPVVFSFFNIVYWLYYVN
T1 sequence (P22723 39-474): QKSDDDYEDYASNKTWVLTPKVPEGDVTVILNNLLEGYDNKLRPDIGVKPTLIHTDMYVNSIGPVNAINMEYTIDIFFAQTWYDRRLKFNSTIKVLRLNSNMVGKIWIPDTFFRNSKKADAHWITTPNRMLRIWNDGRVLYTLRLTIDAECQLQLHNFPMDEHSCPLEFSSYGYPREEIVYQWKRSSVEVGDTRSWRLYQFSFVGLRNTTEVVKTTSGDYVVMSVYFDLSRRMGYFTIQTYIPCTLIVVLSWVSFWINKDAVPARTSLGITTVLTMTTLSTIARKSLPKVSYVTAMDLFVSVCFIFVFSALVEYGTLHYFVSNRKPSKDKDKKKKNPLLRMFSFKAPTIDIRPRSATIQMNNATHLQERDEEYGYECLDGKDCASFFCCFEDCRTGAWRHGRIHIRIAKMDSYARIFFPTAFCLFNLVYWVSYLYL
T2 sequence (P62813 28-455): as the sequence (P62813 28-455 V283S) above, with S256V counted along it
T2 sequence (P63138 25-474 limits assumed): as the sequence (P63138 25-474 limits assumed) above
T2 sequence (P22723 39-474): as the sequence (P22723 39-474) above

C[C@H](CCC(=O)O)[C@H]1CC[C@H]2[C@@H]3[C@H](O)C[C@@H]4C[C@H](O)CC[C@]4(C)[C@H]3CC[C@]12C [CDOC, chenodeoxycholate]
fraction of the transmembrane field sensed at the acceptor site (f) (GABAA receptor): 0.33±0.02 | Kd (GABAA receptor): 42 µM

NC(CCCP(=O)(O)O)C(=O)O [D-AP5]
NMDA-currents (NMDA receptors): abolished

COc1ccc(-c2ccc(=N)n(CCCC(=O)O)n2)cc1 [Gabazine, gabazine]
eIPSCs and sIPSCs [1]: abolished | GABAergic sIPSCs in isolated TMN neuron [2]: abolished

CC(=O)C1CCC2C3CC=C4CC(OS(=O)(=O)O)CCC4(C)C3CCC12C (centres unmarked) [Pregnenolone sulphate, pregnenolone sulphate]
steady-state amplitude of maximal GABA-currents [3]: 82±6 % of control | steady-state amplitude of maximal GABA-currents [4]: 11±3 % of control

C[C@H](CCC(=O)NCCS(=O)(=O)O)[C@H]1CC[C@H]2[C@@H]3[C@@H](O)C[C@@H]4C[C@H](O)CC[C@]4(C)[C@H]3CC[C@]12C [TUDC, tauroursodeoxycholate]
effect on synchronization in the presence of gabazine [5]: blanks the effect

C[C@H](CCC(=O)O)[C@H]1CC[C@H]2[C@@H]3[C@H](O)C[C@@H]4C[C@H](O)CC[C@]4(C)[C@H]3C[C@H](O)[C@]12C [cholate]
fraction of the transmembrane field sensed at the acceptor site (f) (GABAA receptor): 0.3±0.02 | Kd (GABAA receptor): 710 µM

C[C@H](CCC(=O)O)[C@H]1CC[C@H]2[C@@H]3C(=O)C[C@@H]4CC(=O)CC[C@]4(C)[C@H]3CC(=O)[C@]12C [dehydrocholate]
fraction of the transmembrane field sensed at the acceptor site (f) (GABAA receptor): 0.33±0.03 | Kd (GABAA receptor): 1400 µM

CC1CC(C)(c2ccccc2)OC(C)O1 (centres unmarked) [vertacetal]
EC50 (native GABAA receptors; wild type neurons, n = 5, read-out: EC50 of GABAAR modulation by vertacetal): 13.4 ± 2.6 µM | EC50 ([6]; HDC−/− neurons, n = 5, read-out: EC50 of GABAAR modulation by vertacetal): 9.2 ± 3 µM

Cc1ccc(-c2nc3ccc(C)cn3c2CC(=O)N(C)C)cc1 [zolpidem]
modulation of GABAAR, HDC+/+ versus HDC−/− TMN neurons [6]: No difference

picrotoxin
use dependence of block of GABA currents (native GABAA receptors): use-dependent block | reversibility of block of GABA currents (native GABAA receptors; GABA 10 µM, 1 s): not fully reversible
